The values below come from patent US11298403B2, “Therapeutic agent for inflammatory bowel disease” (StemRIM Inc., priority 2017, dated 2022).

Format in all cases: in vivo, C57BL/6 mice
For assay [1], the system named is IBD model mice (DSS-induced enteritis). Put plainly: DSS-induced colitis (IBD) model mice, Example 1: intravenous peptide on 6th and 7th days; body weight and large intestine length. Particulars: 9th day of DSS drinking, 5 mg/kg i.v. on 6th and 7th days, n=3. The protocol: Dextran sulfate sodium (DSS) (molecular weight 5,000 to 6,000, manufactured by Nacalai Tesque, catalog No. 10930-94) was dissolved in water to prepare a 3% (w/v) DSS aqueous solution. A peptide consisting of amino acid residues 1-44 of the human-derived HMGB1 protein (SEQ ID NO: 1) was chemically synthesized by a solid-phase method. Hereinafter, the HMGB1 fragment peptide is referred to as the HMGB1 peptide (1-44) and is expressed as an abbreviation “1-44” in the drawings corresponding to the Examples. […]
(§1) The IBD model mice produced as described above were divided into the HMGB1 peptide (1-44) administration group (n=3) and the control group (n=3). […] Hereinafter, “the Xth day after the start of drinking the DSS aqueous solution” is expressed as an abbreviation “the Xth day of DSS drinking”.
(§2) The body weight of the mice was measured daily from the start of drinking the DSS aqueous solution until the removal of the large intestine. On the 9th day of DSS drinking, the large intestine was excised from the mice, and the length of the large intestine was measured. mRNA was extracted from the terminal part near the anus in the excised large intestine, and the expression level of inflammatory cytokines (TNF-α, IL-1β, and IL-6) was analyzed by quantitative PCR.

The subject of a further assay is TNF-α. Nature of the assay: Example 1: inflammatory cytokine mRNA in large intestine by quantitative PCR (TNF-α). Particulars: 9th day of DSS drinking, 5 mg/kg i.v. on 6th and 7th days, FIG. 3.
Source text: (§3) Colitis was induced in C57BL/6 mice (8 to 10-week-old, male, body weight about 20 g) by allowing them to freely drink the 3% DSS aqueous solution in place of purified water (RO water) (drinking of the DSS aqueous solution was continued until the removal of the large intestine). Mice that were allowed to freely drink purified water (RO water) (hereinafter, referred to as “normal mice”) were used as comparative subjects.
as §1, §2

A further assay has as its system IL-1β. Put plainly: Example 1: inflammatory cytokine mRNA in large intestine by quantitative PCR (IL-1β). Particulars: 9th day of DSS drinking, 5 mg/kg i.v. on 6th and 7th days, FIG. 3.
Source text: as §3, §1, §2

The subject of the next assay is IL-6. Nature of the assay: Example 1: inflammatory cytokine mRNA in large intestine by quantitative PCR (IL-6). Particulars: 9th day of DSS drinking, 5 mg/kg i.v. on 6th and 7th days, FIG. 3.
Source text: as §3, §1, §2

For assay [2], the system named is IBD model mice (DSS-induced enteritis). Nature of the assay: DSS-induced colitis (IBD) model mice, Example 2: intravenous peptide on 1st, 3rd, 5th and 7th days; body weight, large intestine length, HE staining. The settings on record: 10th day of DSS drinking, 5 mg/kg i.v. on 1st. The protocol: as §3
(§4) The DSS aqueous solution and the HMGB1 peptide (1-44) were prepared and the inflammatory bowel disease model mice were produced in the same way as Example 1.
The IBD model mice produced as described in Example 1 were divided into the HMGB1 peptide (1-44) administration group (n=3) and the control group (n=3). The test substance was administered by injecting an HMGB1 peptide (1-44) solution, which has been adjusted to a concentration of 0.5 mg/ml with saline as the vehicle, into the vein at a dose of 200 μl/animal (5 mg/kg as the peptide dose) on the 1st, 3rd, 5th, and 7th days of DSS drinking. In the control group, saline was injected into the vein at a dose of 200 μl/animal on the 1st, 3rd, 5th, and 7th days of DSS drinking. No substance was administered to the normal mice (n=3).
The body weight of the mice was measured daily from the start of drinking the DSS aqueous solution until the removal of the large intestine. On the 10th day of DSS drinking, the large intestine was excised from the mice, and the length of the large intestine was measured. Tissue sections of the cross-section of the intestinal tract were produced using the terminal part near the anus of the excised large intestine, and hematoxylin-eosin (HE) staining was performed.

For assay [3] the test system is unchanged. Nature of the assay: DSS-induced colitis (IBD) model mice, Example 3: peptide-containing hydrogel embedded on the back; body weight, large intestine length. The settings on record: 10th day of DSS drinking, MedGel PI5 hydrogel with 20 μl of 5 μg/μl peptide embedded on the back one day before DSS, n=3. How it is done:
as §3, §4
A bioabsorbable hydrogel (MedGel (registered trademark) PI5, manufactured by MedGEL CO., LTD) cut into a size of about 5 mm×5 mm was soaked with 20 μl of an HMGB1 peptide (1-44) solution, which has been adjusted to a concentration of 5 μg/μl with saline as the vehicle, by dripping and allowed to stand under ice-cooling for 30 minutes. The resulting hydrogel was used for embedding in the mice of the HMGB1 peptide (1-44) administration group. […]
The body weight of the mice was measured daily from the start of drinking the DSS aqueous solution until the removal of the large intestine. On the 10th day of DSS drinking, the large intestine was excised from the mice, and the length of the large intestine was measured.

For “HMGB1 peptide (1-44): peptide consisting of amino acid residues 1-44 of the human-derived HMGB1 protein (SEQ ID NO: 1), chemically synthesized by a solid-phase method (MGKGDPKKPRGKMSSYAFFVQTCREEHKKKHPDASVNFSEFSKK)”, the “body weight vs control group” value in assay [1] (FIG. 1) was “significantly higher than that of the control group”; in assay [2] (n=3, FIG. 4) it was “significantly higher than that of the control group”; in assay [3] (FIG. 7) it was “higher than that of the control group”. Moreover, the “length of the large intestine vs control group” value in assay [1] (FIG. 2) is reported as “significantly longer than that of the control group”; in assay [2] (n=3, FIG. 5), “significantly longer than that of the control group”; in assay [3] (FIG. 8) it was “longer than that of the control group”. Besides, in the assay on TNF-α, the “expression level of TNF-α in the large intestine vs control group” value was “significantly lower than that of the control group”. The “expression level of IL-1β in the large intestine vs control group” value in the assay with IL-1β is recorded as “significantly lower than that of the control group”. For the same substance, the “expression level of IL-6 in the large intestine vs control group” value in the assay on IL-6 is “significantly lower than that of the control group”. Besides, the “mucosal tissue damage of the large intestine (HE staining)” value in assay [2] (FIG. 6) is recorded as “damage of the mucosal tissue was suppressed”.
